Article PMC9090415, “Discovery of small molecule inhibitors of Plasmodium falciparum apicoplast DNA polymerase” (Journal of Enzyme Inhibition and Medicinal Chemistry, 2022)

Target: P. falciparum apicoplast DNA polymerase (Pf-apPOL) (Plasmodium falciparum, UniProt Q8ILY1)
Experiment: Fluorescence-based high-throughput DNA polymerase assay (molecular beacon), primary screen and dose-response
Type: biochemical
Procedure: The HT assay employs a molecular beacon, a stem-loop DNA template with a Cy3 dye and the Black Hole Quencher on the 3′ and 5′ ends of the DNA, respectively. Pf-apPOL concentration is based on a calculated absorptivity of ε280 = 56750 M^−1 cm^−1. Reactions were carried out at 25 °C, using Corning 3575 […] (well-volume, 20 µL). Assays testing for compound inhibition composed of reaction buffer (pH 7.9 in 50 mM potassium acetate, 20 mM Tris-acetate and 10 mM magnesium acetate), Pf-apPOL (20 nM), DNA substrate (20 nM), dNTPs (6 µM), and compound (10 µM in DMSO). The DNA and nucleotide substrates (dNTPs) were at concentrations of 20 nM and 6 µM, respectively, in the assay. Pf-apPOL was incubated in the reaction buffer with dNTPs and the compound of interest (10 µM, in the assay) at 25 °C for 10 min. The DNA substrate was then added and the reaction was allowed to proceed for 90 min at 25 °C.
Each assay plate contained 16 negative controls (no Pf-apPOL, DMSO present) and 16 positive controls (Pf-apPOL present, no DMSO). The fluorescence of each well was determined using a BioTek Synergy Neo fluorescence plate reader using excitation and emission wavelengths of 555 and 570 nm, respectively.
In the above, Min is the average of fluorescence emission of the negative controls (substrate only), Max the average fluorescence emission from the positive controls (enzyme + substrate), and Test the emission from the assays in the presence of compounds (enzyme + compound + substrates). […] […] The IC50 of each compound was determined using Equation (2): (2) IC50= Vmax/(1+ (I/IC50)^n)
In the above, n measures cooperativity, with n > 1 indicating synergistic binding of more than a single molecule of the compound.
To identify apPOL inhibitors we utilised our previously developed high-throughput DNA polymerase assay. The HT assay is based on a molecular beacon DNA template that forms a stem-loop with a Cy3 dye and the Black Hole Quencher on the 3′ and 5′ ends of the DNA, respectively. DNA polymerase activity extends an annealed primer through the stem region, displacing the fluorophore from the quencher, thereby increasing its fluorescence (Figure 1(A)). The assay accurately recapitulates the kinetic behaviour of apPOL, as measured through more conventional low-throughput gel-based assays. The Z′ factor for the assay described here was 0.9 across all plates (data not shown).
Figure 1. High-throughput screening. (A) The fluorescent-based DNA polymerase assay used to screen the compound libraries. The DNA template strand is a hairpin loop with a primer annealed to the loop. The 3’ end of the primer is 11 bases away from the 6 bp duplex. Strand displacement activity of the DNA polymerase separates the Cy3 dye from the Black hole quencher leading to an increase in fluorescent signal. (B) The high-throughput assay workflow. The DNA polymerase is incubated with […] compound for 10 min prior to addition of the hairpin substrate. The reaction is quenched at 3 different time points and the fluorescent signal is measured and % inhibition is determined using the provided equation.

Sequence of P. falciparum apicoplast DNA polymerase (Pf-apPOL) (Q8ILY1 entry or part of it): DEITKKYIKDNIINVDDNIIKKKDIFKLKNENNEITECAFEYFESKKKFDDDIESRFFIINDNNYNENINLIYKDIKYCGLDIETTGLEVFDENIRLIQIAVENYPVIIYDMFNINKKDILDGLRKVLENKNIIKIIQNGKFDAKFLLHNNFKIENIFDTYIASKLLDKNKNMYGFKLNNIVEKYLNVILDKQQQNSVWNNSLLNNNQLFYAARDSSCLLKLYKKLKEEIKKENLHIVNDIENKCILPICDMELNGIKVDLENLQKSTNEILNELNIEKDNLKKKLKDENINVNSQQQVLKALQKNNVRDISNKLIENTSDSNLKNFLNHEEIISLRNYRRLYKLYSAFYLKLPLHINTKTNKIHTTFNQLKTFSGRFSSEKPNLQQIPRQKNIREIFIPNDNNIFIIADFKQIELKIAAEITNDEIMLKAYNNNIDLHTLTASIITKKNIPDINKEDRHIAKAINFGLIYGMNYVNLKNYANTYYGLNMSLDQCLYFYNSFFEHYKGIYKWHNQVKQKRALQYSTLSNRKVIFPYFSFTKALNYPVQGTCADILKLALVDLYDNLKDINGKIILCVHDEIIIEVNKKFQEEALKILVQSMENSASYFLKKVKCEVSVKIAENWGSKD

N#CC(C#N)=C1SCN(c2cccc(Cl)c2)CS1 [Molecule 29, N#CC(=C1SCN(CS1)c1cccc(c1)Cl)C#N]
DNA Pol ('DNA Pol' of the 186 hits list (screen value); 90 min, 10 µM): 95
% inhibition Apo pol 10' (DRC-1; 10'; conc 2.5): 21.8228%
% inhibition Apo pol 10' (DRC-1; 10'; conc 5): 35.73%
% inhibition Apo pol 10' (DRC-1; 10'; conc 10): 36.478%
% inhibition Apo pol 10' (DRC-1; 10'; conc 20): 90.158%
% inhibition Apo pol 10' (DRC-1; 10'; conc 40): 91.3949%
% inhibition Apo pol 10' (DRC-1; 10'; conc 80): 94.8229%
% inhibition Apol 90' (DRC-1; 90'; conc 2.5): 12.5059%
% inhibition Apol 90' (DRC-1; 90'; conc 5): 27.1845%
% inhibition Apol 90' (DRC-1; 90'; conc 10): 28.2977%
% inhibition Apol 90' (DRC-1; 90'; conc 20): 85.5173%
% inhibition Apol 90' (DRC-1; 90'; conc 40): 87.9667%
% inhibition Apol 90' (DRC-1; 90'; conc 80): 95.5447%
% inhibition apPOL 180' (DRC-1; 180'; conc 2.5): 2.521%
% inhibition apPOL 180' (DRC-1; 180'; conc 5): 13.8215%
% inhibition apPOL 180' (DRC-1; 180'; conc 10): 15.4746%
% inhibition apPOL 180' (DRC-1; 180'; conc 20): 81.5285%
% inhibition apPOL 180' (DRC-1; 180'; conc 40): 85.2905%
% inhibition apPOL 180' (DRC-1; 180'; conc 80): 94.962%
% inhibition Apo pol 5' (DRC-2; 5'; conc 2.5): 14%
% inhibition Apo pol 5' (DRC-2; 5'; conc 5): 34%
% inhibition Apo pol 5' (DRC-2; 5'; conc 10): 45%
% inhibition Apo pol 5' (DRC-2; 5'; conc 20): 55%
% inhibition Apo pol 5' (DRC-2; 5'; conc 40): 60%
% inhibition Apo pol 5' (DRC-2; 5'; conc 80): 60%
% inhibition Apo pol 5' (DRC-2; 5'; concentration 40): 60%
% inhibition Apo pol 5' (DRC-2; 5'; concentration 80): 60%
% inhibition Apol 40' (DRC-2; 40'; conc 2.5): 20%
% inhibition Apol 40' (DRC-2; 40'; conc 5): 42%
% inhibition Apol 40' (DRC-2; 40'; conc 10): 56%
% inhibition Apol 40' (DRC-2; 40'; conc 20): 65%
% inhibition Apol 40' (DRC-2; 40'; conc 40): 73%
% inhibition Apol 40' (DRC-2; 40'; conc 80): 76%
% inhibition Apol 40' (DRC-2; 40'; concentration 10): 56%
% inhibition Apol 40' (DRC-2; 40'; concentration 40): 73%
% inhibition ApPOL 90' (DRC-2; 90'; conc 2.5): 17%
% inhibition ApPOL 90' (DRC-2; 90'; conc 5): 41%
% inhibition ApPOL 90' (DRC-2; 90'; conc 10): 56%
% inhibition ApPOL 90' (DRC-2; 90'; conc 20): 66%
% inhibition ApPOL 90' (DRC-2; 90'; conc 40): 75%
% inhibition ApPOL 90' (DRC-2; 90'; conc 80): 79%
% inhibition ApPOL 90' (DRC-2; 90'; concentration 10): 56%
% inhibition apPOL 180' (DRC-2; 180'; conc 2.5): 10%
% inhibition apPOL 180' (DRC-2; 180'; conc 5): 31%
% inhibition apPOL 180' (DRC-2; 180'; conc 10): 48%
% inhibition apPOL 180' (DRC-2; 180'; conc 20): 62%
% inhibition apPOL 180' (DRC-2; 180'; conc 40): 73%
% inhibition apPOL 180' (DRC-2; 180'; conc 80): 81%
% inhibition apPOL 180' (DRC-2; 180'; concentration 40): 73%
DNA Pol (primary screen value, "DNA Pol"; 90 min, 10 µM): 95

Cc1cc(C)c2c(O)nc(SCC(=O)c3ccc(O)c(O)c3)nc2n1 [Molecule 88]
IC50 (supplemental file 2, sheet IC50 nontoxic compounds; Pf-apPOL): < 2.5 µM

Cc1ccc(C2=N/C(=C\c3ccc(I)o3)C(=O)O2)cc1[N+](=O)[O-] [KU0073890]
% inhibition Apo pol 10' (DRC-1; concentration 2.5; 10'): 15.7556%
% inhibition Apol 90' (DRC-1; concentration 2.5; 90'): 9.731%
% inhibition apPOL 180' (DRC-1; concentration 2.5; 180'): 6.694%
% inhibition Apo pol 10' (DRC-1; concentration 5; 10'): 16.0721%
% inhibition Apol 90' (DRC-1; concentration 5; 90'): 7.063%
% inhibition apPOL 180' (DRC-1; concentration 5; 180'): 1.084%
% inhibition Apo pol 10' (DRC-1; concentration 10; 10'): 45.023%
% inhibition Apol 90' (DRC-1; concentration 10; 90'): 27.25%
% inhibition apPOL 180' (DRC-1; concentration 10; 180'): 14.7198%
% inhibition Apo pol 10' (DRC-1; concentration 20; 10'): 76.1272%
% inhibition Apol 90' (DRC-1; concentration 20; 90'): 60.0756%
% inhibition apPOL 180' (DRC-1; concentration 20; 180'): 43.2832%
% inhibition Apo pol 10' (DRC-1; concentration 40; 10'): 86.9883%
% inhibition Apol 90' (DRC-1; concentration 40; 90'): 86.9491%
% inhibition apPOL 180' (DRC-1; concentration 40; 180'): 82.7565%
% inhibition Apo pol 10' (DRC-1; concentration 80 (unit not given); 10'): 80.4424%
% inhibition Apol 90' (DRC-1; concentration 80; 90'): 89.2693%
% inhibition apPOL 180' (DRC-1; concentration 80; 180'): 91.2118%
% inhibition Apo pol 5' (DRC-2; 5'; concentration 2.5): 19%
% inhibition Apol 40' (DRC-2; 40'; concentration 2.5): 19%
% inhibition ApPOL 90' (DRC-2; 90'; concentration 2.5): 17%
% inhibition ApPOL 90' (DRC-2; 90'; concentration 40): 75%
% inhibition ApPOL 90' (DRC-2; 90'; concentration 80): 75%
% inhibition apPOL 180' (DRC-2; 180'; concentration 5): 17%
% inhibition Apo pol 5' (DRC-2; concentration 2.5; 5'): 19%
% inhibition Apol 40' (DRC-2; concentration 2.5; 40'): 19%
% inhibition ApPOL 90' (DRC-2; concentration 2.5; 90'): 17%
% inhibition apPOL 180' (DRC-2; concentration 2.5; 180'): 11%
% inhibition Apo pol 5' (DRC-2; concentration 5; 5'): 35%
% inhibition Apol 40' (DRC-2; concentration 5; 40'): 32%
% inhibition ApPOL 90' (DRC-2; concentration 5; 90'): 29%
% inhibition apPOL 180' (DRC-2; concentration 5; 180'): 17%
% inhibition Apo pol 5' (DRC-2; concentration 10; 5'): 44%
% inhibition Apol 40' (DRC-2; concentration 10; 40'): 42%
% inhibition ApPOL 90' (DRC-2; concentration 10; 90'): 38%
% inhibition apPOL 180' (DRC-2; concentration 10; 180'): 25%
% inhibition Apo pol 5' (DRC-2; concentration 20; 5'): 55%
% inhibition Apol 40' (DRC-2; concentration 20; 40'): 62%
% inhibition ApPOL 90' (DRC-2; concentration 20; 90'): 60%
% inhibition apPOL 180' (DRC-2; concentration 20; 180'): 51%
% inhibition Apo pol 5' (DRC-2; concentration 40; 5'): 58%
% inhibition Apol 40' (DRC-2; concentration 40; 40'): 73%
% inhibition ApPOL 90' (DRC-2; concentration 40; 90'): 75%
% inhibition apPOL 180' (DRC-2; concentration 40; 180'): 77%
% inhibition Apo pol 5' (DRC-2; concentration 80; 5'): 49%
% inhibition Apol 40' (DRC-2; concentration 80; 40'): 70%
% inhibition ApPOL 90' (DRC-2; concentration 80; 90'): 75%
% inhibition apPOL 180' (DRC-2; concentration 80; 180'): 80%
DNA Pol (primary screen value of the 186 hits; unit not given; 90 min, 10 µM): 42
DNA Pol (primary screen value; head prints only 'DNA Pol'; 90 min, 10 µM): 42
